Holding throughout (experiment): Post-emergence efficacy, glasshouse spray test
Common to all, as to format: in vivo

Assay [1] has as its system Amaranthus palmeri (AMAPA). The following applies: Amaranthus palmeri, post-emergence, 312 h; application rate 1000 g/Ha; evaluated after 13 days; read-out: Control of weed species AMAPA after post-emergence application (100=total damage to plant; 0=no damage to plant). Put shortly:
(§1)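 Plants grown 14 days in glasshouse (24/16 °C day/night, 14 h light, 65% humidity), then sprayed post-emergence with formula (I) formulated in IF50 and diluted in 0.25% or 1% Empicol ESC70 + 1% ammonium sulphate. Damage scored visually 13 days after spraying (0 = none, 100 = total).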

For assay [2], the system named is Chenopodium album (CHEAL). The following applies: Chenopodium album, post-emergence, 312 h; application rate 1000 g/Ha; evaluated after 13 days; read-out: Control of weed species CHEAL after post-emergence application (100=total damage to plant; 0=no damage to plant). The method, boiled down: as §1
Assay [3] has as its system Digitaria sanguinalis (DIGSA). The following applies: Digitaria sanguinalis, post-emergence, 312 h; application rate 1000 g/Ha; evaluated after 13 days; read-out: Control of weed species DIGSA after post-emergence application (100=total damage to plant; 0=no damage to plant). The method, boiled down: as §1
Assay [4] deals with Echinochloa crus-galli (ECHCG). The following applies: Echinochloa crus-galli, post-emergence, 312 h; application rate 1000 g/Ha; evaluated after 13 days; read-out: Control of weed species ECHCG after post-emergence application (100=total damage to plant; 0=no damage to plant). Put shortly: as §1
The test system of the next assay is Eleusine indica (ELEIN). The following applies: Eleusine indica, post-emergence, 312 h; application rate 1000 g/Ha; evaluated after 13 days; read-out: Control of weed species ELEIN after post-emergence application (100=total damage to plant; 0=no damage to plant). Put shortly:
as §1

Assay [5] relates to Euphorbia heterophylla (EPHHL). The following applies: Euphorbia heterophylla, post-emergence, 312 h; application rate 1000 g/Ha; evaluated after 13 days; read-out: Control of weed species EPHHL after post-emergence application (100=total damage to plant; 0=no damage to plant). The method, boiled down:
as §1

The subject of assay [6] is Ipomoea hederacea (IPOHE). The following applies: Ipomoea hederacea, post-emergence, 312 h; application rate 1000 g/Ha; evaluated after 13 days; read-out: Control of weed species IPOHE after post-emergence application (100=total damage to plant; 0=no damage to plant). The method, boiled down:
as §1

For a further assay, the system named is Lolium perenne (LOLPE). The following applies: Lolium perenne, post-emergence, 312 h; application rate 1000 g/Ha; evaluated after 13 days; read-out: Control of weed species LOLPE after post-emergence application (100=total damage to plant; 0=no damage to plant). Put shortly: as §1
For another assay, the system named is Setaria faberi (SETFA). The conditions noted are these: Setaria faberi, post-emergence, 312 h; application rate 1000 g/Ha; evaluated after 13 days; read-out: Control of weed species SETFA after post-emergence application (100=total damage to plant; 0=no damage to plant). The method, boiled down:
as §1

Counter-ions that a name gives are not always drawn.

Take `O=S(=O)([O-])CC[n+]1ccc2cccc(Cl)c2n1` [Compound A22]: the pest or weed control at 1000 g/ha in assay [1] turned out to be 70%; in [2], 70%; in assay [3], 50%; in [4], 40%; in the assay with Eleusine indica (ELEIN), 70%; in assay [5], 70%. In addition, the values for the pest or weed control at 1000 g/ha (in [6]; with Lolium perenne (LOLPE); with Setaria faberi (SETFA)) were 20%, 20% and 30%, respectively.
Turning to `N[C@@H](C[n+]1ccc2ccccc2n1)C(=O)[O-]` [Compound A23, (2S)-2-amino-3-cinnolin-2-ium-2-yl-propanoic Acid 2,2,2-trifluoroacetate], the pest or weed control at 1000 g/ha in [1] is 60%; in [2], 30%; in assay [3], 40%; in assay [4], 30%; in the assay on Eleusine indica (ELEIN), 20%; in assay [5], 30%. The pest or weed control at 1000 g/ha worked out at 20% in assay [6], 10% in the assay with Lolium perenne (LOLPE) and 40% in the assay on Setaria faberi (SETFA).
As for `O=S(=O)([O-])CC[n+]1ccc2ccccc2n1` [Compound A24, 2-cinnolin-2-ium-2-ylethanesulfonate], the pest or weed control at 1000 g/ha turned out to be 60% in [1]; 60% in [2]; 80% in assay [3]; 40% in assay [4]; 80% with Eleusine indica (ELEIN); 70% in assay [5]. Further, the pest or weed control at 1000 g/ha in [6] was found to be 80%; in the assay with Lolium perenne (LOLPE), 40%; in the assay on Setaria faberi (SETFA), 60%.
On to `O=S(=O)([O-])CCCC[n+]1ccc2ccccc2n1` [Compound A25], for which the pest or weed control at 1000 g/ha stood at 50% in assay [1]; 60% in assay [2]; 20% in [3]; 0% in assay [4]; 60% in the assay on Eleusine indica (ELEIN); 30% in assay [5]. In addition, the pest or weed control at 1000 g/ha in assay [6] amounted to 50%; in the assay on Lolium perenne (LOLPE), 50%; in the assay on Setaria faberi (SETFA), 30%.
`O=S(=O)([O-])OCC[n+]1ccc2ccccc2n1` [Compound A26]: the pest or weed control at 1000 g/ha in assay [1] amounted to 100%; in [2] it was 70%; in assay [3], 70%; in [4], 30%; in the assay on Eleusine indica (ELEIN) it was 70%; in [5], 90%. In addition, the pest or weed control at 1000 g/ha in assay [6] came to 70%; with Lolium perenne (LOLPE), 60%; in the assay on Setaria faberi (SETFA), 60%.
Regarding `O=S(=O)([O-])OCCC[n+]1ccc2ccccc2n1` [Compound A27], the pest or weed control at 1000 g/ha in assay [1] was determined as 100%; in [2], 90%; in [3], 70%; in [4], 50%; in the assay with Eleusine indica (ELEIN), 80%; in [5] it was 60%. The pest or weed control at 1000 g/ha in [6] turned out to be 50%; in the assay on Lolium perenne (LOLPE) it was 40%; in the assay on Setaria faberi (SETFA), 70%.
For `O=S(=O)([O-])CC(O)C[n+]1ccc2ccccc2n1` (stereo not drawn) [Compound A28], the pest or weed control at 1000 g/ha in assay [1] is 90%; in assay [2], 70%; in assay [3], 60%; in assay [4], 40%; with Eleusine indica (ELEIN) it was 80%; in assay [5], 80%. In addition, the pest or weed control at 1000 g/ha in assay [6] was 60%; with Lolium perenne (LOLPE), 60%; in the assay on Setaria faberi (SETFA), 50%.
On to `CS(=O)(=O)[N-]C(=O)CCC[n+]1ccc2ccccc2n1` [Compound A30], for which the pest or weed control at 1000 g/ha worked out at 70% in assay [1]; 60% in assay [2]; 20% in [3]; 10% in [4]; 20% with Eleusine indica (ELEIN); 50% in [5]. Moreover, the pest or weed control at 1000 g/ha in assay [6] worked out at 10%; in the assay on Lolium perenne (LOLPE), 10%; in the assay with Setaria faberi (SETFA), 20%.
Regarding `O=S(=O)([O-])OC[n+]1ccc2ccccc2n1` [Compound A31, cinnolin-2-ium-2-ylmethyl hydrogen sulfate], the pest or weed control at 1000 g/ha in [1] came to 30%; in [2] it was 20%; in assay [3], 0%; in assay [4], 0%; with Eleusine indica (ELEIN), 0%; in assay [5] it was 30%. Further, the pest or weed control at 1000 g/ha in [6] is 30%; in the assay on Lolium perenne (LOLPE) it was 0%; in the assay with Setaria faberi (SETFA), 0%.
Turning to `Cc1ccc2n[n+](CCS(=O)(=O)[O-])ccc2c1` [Compound A32], the pest or weed control at 1000 g/ha in [1] worked out at 90%; in assay [2], 90%; in [3], 70%; in assay [4], 80%; with Eleusine indica (ELEIN), 90%; in assay [5], 90%. In addition, the values for the pest or weed control at 1000 g/ha (in [6]; with Lolium perenne (LOLPE); in the assay with Setaria faberi (SETFA)) were 70%, 30% and 60%, respectively.
For the molecule `COc1ccc2n[n+](CCS(=O)(=O)[O-])ccc2c1` [Compound A37], the pest or weed control at 1000 g/ha in assay [1] came out at 0%; in assay [2] it was 0%; in [3] it was 60%; in assay [4], 50%; in the assay on Eleusine indica (ELEIN), 60%; in assay [5], 20%. For the same molecule, the figures for the pest or weed control at 1000 g/ha (in assay [6]; in the assay with Lolium perenne (LOLPE); with Setaria faberi (SETFA)) were 10%, 20% and 40%, respectively.
Regarding `COc1c[n+](CCS(=O)(=O)[O-])nc2ccccc12` [Compound A38], the pest or weed control at 1000 g/ha turned out to be 20% in assay [1]; 40% in assay [2]; 20% in assay [3]; 30% in [4]; 10% with Eleusine indica (ELEIN); 30% in assay [5]. Moreover, the figures for the pest or weed control at 1000 g/ha (in [6]; in the assay on Lolium perenne (LOLPE); with Setaria faberi (SETFA)) were 30%, 10% and 10%, respectively.
Consider `O=S(=O)([O-])CCC[n+]1cc(C(Cl)Cl)c2ccccc2n1` [Compound A39, 3-[4-(dichloromethyl)cinnolin-2-ium-2-yl]propane-1-sulfonate], for which the pest or weed control at 1000 g/ha in [1] came to 10%; in assay [2], 20%; in assay [3], 10%; in assay [4], 10%; with Eleusine indica (ELEIN), 10%; in assay [5], 40%. The figures for the pest or weed control at 1000 g/ha (in assay [6]; in the assay with Lolium perenne (LOLPE); in the assay with Setaria faberi (SETFA)) were 30%, 0% and 0%, respectively.

The values are drawn from patent publication US20220046923A1, “HERBICIDAL CINNOLINIUM COMPOUNDS” (SYNGENTA CROP PROTECTION AG, priority 2018, published 2022).
